Here are results for 29 compounds from US6130220A, “Sulfamide-metalloprotease inhibitors” (Syntex (USA) Inc., priority 1999, dated 2000).

The structures appear in SMILES notation. pIC50: −log10 of the molar value. A value given as a limit tells only on which side of the number the result lay.

In one test the test system is TNF-α. Kind of test: Inhibition of LPS induced TNF-α production in mice in vivo. As to conditions: s.c. compound, LPS 50 μg/mouse i.p. 1 h later, blood after 1.5 h. The procedure:
The activity of compounds of this invention in inhibiting the TNF-α release was determined, using a minor modification of the methods described in Zanetti, G.; Heumann, D., et. al., "Cytokine production after intravenous or peritoneal Gram-negative bacterial challenge in mice" J. Immunol., 148, 1890, (1992) and Sekut, L., Menius, J. A., et. al., "Evaluation if the significance of elevated levels of systemic and localized tumor necrosis factor in different animal models of inflammation" J. Lab. Clin. Med., 124, 813, (1994).
Female Balbic mice were anesthetized and injected subcutaneously with the test compounds dissolved in CMC vehicle or hydroxypropylmethyl cellulose based vehicle. Control animals received only the vehicle. After 1 h, LPS (50 μg/mouse, Sigma #13129, Sigma Chemical Co., St. Louis, Mo.) was injected intraperitoneally. After 1.5 h, blood was collected from the retro-rbital plexus region of the animals in a miicrotainer serum separator tube (Becton Dickinson, Cat. No. #5960, Becton Dickinson & Co., Franklin Lakes, N.J.). The sera was separated and the amount of TNF-α was determined using the EM-TNFA® kit (Endogen, Woburn, Mass.) by following the manufacturer's protocol.

Test [1] concerns TNF-α release from Human Monomac 6 cells. Put plainly: Inhibition of TNF release in vitro, Monomac 6 cells, LPS/PMA. The format is cell-based. Particulars: 2 h; for inhibition at 10 µM: MONO-MAC-6, 10 μM, read-out: TNF-α % inhibition, Conc. 10 μM; for inhibition at 2 µM: MONO-MAC-6, 2 μM, read-out: TNF-α % inhibition, Conc. 2 μM. The method, then: The activity of compounds of this invention in inhibiting the TNF release was determined, using the a minor modification of the method described in Pradines-Figueres, A. and Raetz, C. R. H., J. Biol. Chem., 267 (32), 23261, (1992).
Human Monomac 6 cells (Ziegler-Heitbrock, H. W. L., et al., Int. J. Cancer, 41, 456, (1988)) were cultured at 37° C. in RPMI 1640 medium containing 10% fetal calf serum to a density of 1×10^5 cells/ml. 0.23 ml of these cells were placed in each well of a tissue culture plate and the cells were incubated for 15 min. The test compounds were dissolved in above mentioned medium and added and the incubation was continued for an additional 15 min. 10 μl of an lipopolysaccharide/phorbol-12-myristate-13-acetate (LPS/PMA) mixture was added such that the final concentration of lipopolysaccharide was 10 ng/ml and the final concentration of phorbol-12-myristate-13-acetate was 30 ng/ml. The cells were incubated for 2 h after which the plate was centrifuged and the medium was removed and analyzed for TNF content. The analysis was performed using a TNF Quantikine® Inmunoassay (R & D Systems, Minneapolis, Minn. 55413) by following the manufacturer's protocol.
The TNF-α inhibitory activity of test materials, i.e., the measure of the TNF-α content in the test group relative to the vehicle treated group (control group) was: […]

Another test addresses Collagenase-III. Put plainly: MMP enzymatic assay, hydrolysis of MCA-Pro-Leu-Gly-Leu-DPA-Ala-Arg-NH2, Collagenase-III. As to conditions: 37° C., pH 7.5, 2.5% DMSO. The format is biochemical. The method, then:
The propeptide and catalytic domain portion of human collagenase-3 was expressed in E. Coli as an N-terminal fusion protein with ubiquitin. After purification, the catalytic domain was released by treatment with 1 mM APMA for 1 hour at 37° C., and then purified by zinc chelate chromatography.
Rat collagenase-3 was purified in active form from the culture media of uterine smooth muscle cells as described in Roswit, W. T. et al., Arch. Biochem. Biophys., 225, 285-295 (1983).
The matrix metalloprotease inhibitory activity of compounds of this invention in vitro was determined based on the hydrolysis of MCA-Pro-Leu-Gly-Leu-DPA-Ala-Arg-NH2 (Bachem, Inc.) at 37° C. as described in Knight, C. G., et al., FEBS Lett., 296, 263-266 (1992).
The matrix metalloprotease enzyme was diluted with assay buffer (50 mM Tricine pH 7.5, 200 mM NaCl, 10 mM CaCl2, and 0.005% Brij-35) containing 10 μmole of above substrate dissolved in DMSO. Compounds of the invention dissolved in DMSO or only DMSO (control samples) were added such that the final DMSO concentration in all assays was 2.5%. The fluorescence changes were monitored with a Perkin-Elmer LS-50B flourimeter using an excitation wavelength of 328 nm and an emission wavelength of 393 nm.

For the compound `O=C(NO)C1CCCCN1S(=O)(=O)N1CCCCC1` (racemic) [compound 233], the TNF-α % inhibition in the test on TNF-α is recorded as 46%.
On the same count and under the same terms, under `O=C(NO)C1CCCCN1S(=O)(=O)N1CCN(c2ccc(Cl)cc2)CC1` (racemic) [compound 234, N-hydroxy-1-[4-(4-chlorophenyl)piperazine-1-sulfonyl]piperidine-2-(RS)-carboxamide] stands 46%.
In the case of `O=C(NO)C1CCCCN1S(=O)(=O)N1CCC(c2c[nH]c3ccc(F)cc23)CC1` (racemic) [compound 254, N-hydroxy-1-[4-(5-fluoroindol-3-yl)piperidine-1-sulfonyl]piperidine-2-(RS)-carboxamide], the inhibition at 10 µM in test [1] amounted to 94%. Further, the negative logarithm of the IC50 (pIC50) against Collagenase-III is 6.74.
The like results for `CC(=O)N1CCN(S(=O)(=O)N2CCC(C(=O)c3ccc(Cl)cc3)CC2)C(C(=O)NO)C1` (racemic) [compound 255, N-hydroxy-4-acetyl-1-[4-(4-chlorobenzoyl)piperidine-1-sulfonyl]piperazine-2-(RS)-carboxamide] were, in that order, 97% and 9.72.
Take `O=C(NO)C1CCCCN1S(=O)(=O)N1CCC(c2c[nH]c3cc(Cl)ccc23)CC1` (racemic) [compound 256, N-hydroxy-1-[4-(6-chloroindol-3-yl)piperidine-1-sulfonyl]piperidine-2-(RS)-carboxamide]: the inhibition at 10 µM in test [1] worked out at 79%. Moreover, the pIC50 at Collagenase-III is 7.48.
With `O=C(NO)C1CCCCN1S(=O)(=O)N1CCC(c2noc3cc(F)ccc23)CC1` (racemic) [compound 286, N-hydroxy-1-[4-(6-fluorobenzisoxazol-3-yl)piperidine-1-sulfonyl]piperidine-2-(RS)-carboxamide], at Collagenase-III, the negative logarithm of the IC50 (pIC50) was 10.20.
As for `O=C(NO)C1CCCCN1S(=O)(=O)N1CC=C(c2ccc(Cl)cc2)CC1` (racemic) [compound 375, N-hydroxy-1-[4-(4-chlorophenyl)-1,2,3,6-tetrahydropyridine-1-sulfonyl]piperidine-2-(RS)-carboxamide], the inhibition at 2 µM in test [1] was found to be 85%.
Still for that read-out and setting: the figure for `Cc1cc(C2=CCN(S(=O)(=O)N3CCN(C(=O)OCc4ccccc4)CC3C(=O)NO)CC2)ccc1F` (racemic) [compound 381, N-hydroxy-4-benzyloxycarbonyl-1-[4-(4-fluoro-3-methylphenyl)-1,2,3,6-tetrahydropyridine-1-sulfonyl]piperazine-2-(RS)-carboxamide] is 10%.
For the compound `Cc1cc(C2=CCN(S(=O)(=O)N3CCN(C(=O)OC(C)(C)C)CC3C(=O)NO)CC2)ccc1F` (racemic) [compound 384], the inhibition at 10 µM in test [1] amounted to 96%.
On Collagenase-III, `CC(C)[C@H](C(=O)NO)N(Cc1ccccc1)S(=O)(=O)N1CCCCC1` [compound 1, N-hydroxy-2-(R)-[benzyl-(piperidine-1-sulfonyl)amino]-3-methylbutyramide] gave a negative logarithm of the IC50 (pIC50) of 6.18.
`COCCN(CC(=O)NO)S(=O)(=O)N1CCN(c2ccc(Cl)cc2)CC1` [compound 16]: the inhibition at 10 µM in test [1] was less than 15%. Also, the pIC50 on Collagenase-III is 7.68.
For `O=C(NO)[C@H](CSCc1ccccc1)NS(=O)(=O)N1CCN(c2ccc(Cl)cn2)CC1` [compound 102], in that order: 56% and 9.04.
For `CC(C)[C@H](C(=O)NO)N(CCCc1cccnc1)S(=O)(=O)N1CCC(Oc2ccc(Br)cc2)CC1` [compound 105], in that order: 20% and 9.23.
As for `CC(C)[C@@H](NS(=O)(=O)N1CCC(c2nc(-c3ccccc3)c[nH]2)CC1)C(=O)NO` [compound 133, N-hydroxy-2-(R)-{[4-(4-phenylirnidazol-2-yl)piperidine-1-sulfonyl]amino}-3-methylbutyramide], the inhibition at 10 µM in test [1] was determined as 32%. This compound gave a pIC50 on Collagenase-III of 7.74.
`CC(C)[C@@H](NS(=O)(=O)N1CCC(C(=O)c2ccc(Cl)cc2)CC1)C(=O)NO` [compound 134]: the TNF-α % inhibition with TNF-α is 42%.
Regarding `C[C@@H](NS(=O)(=O)N1CCN(C(=O)Nc2ccc(Cl)cc2)CC1)C(=O)NO` [compound 177, N-hydroxy-2-(R)-{[4-(4-chlorophenylaminocarbonyl)piperazine-1-sulfonyl]amino}propionamide], the inhibition at 10 µM in test [1] is less than 15%. Moreover, at Collagenase-III, the negative-log IC50 (pIC50) was 8.80.
As to `C[C@@H](NS(=O)(=O)N1CCC(c2cccc3ccccc23)CC1)C(=O)NO` [compound 216], the TNF-α % inhibition in the test with TNF-α is recorded as 41%.
For `CN(C)C(=O)N1CCN(S(=O)(=O)N2CCC(C(=O)c3ccc(Cl)cc3)CC2)[C@@H](C(=O)NO)C1` [compound 298, N-hydroxy-1-[4-(4-chlorobenzoyl)piperidine-1-sulfonyl]-4-(N,N-dimethylaminocarbonyl)piperazine-2-(R)-carboxamide], the inhibition at 2 µM in test [1] was 70%. In addition, the pIC50 against Collagenase-III was 9.70.
Consider `CN(C)C(=O)N1CCN(S(=O)(=O)N2CCC(c3ccc(F)cc3)CC2)[C@@H](C(=O)NO)C1` [compound 313, N-hydroxy-4-(N,N-dimethylaminocarbonyl)-1-[4-(4-fluorophenyl)piperidine-1-sulfonyl]piperazine-2-(R)-carboxamide], for which, in test [1], the inhibition at 2 µM was 73%.
Same read-out and setting: under `O=C(NO)[C@H]1CCCCN1S(=O)(=O)N1CCc2c([nH]c3ccccc23)C1` [compound 314, N-hydroxy-1-[1,2,3,4-tetrahydro-beta-carboline-2-sulfonyl]piperidine-2-(R)-carboxamide] stands 72%.
Turning to `CN(C)S(=O)(=O)N1CCN(S(=O)(=O)N2CCC(C(=O)c3ccc(Cl)cc3)CC2)[C@@H](C(=O)NO)C1` [compound 315, N-hydroxy-1-[4-(4-chlorobenzoyl)piperidine-1-sulfonyl]-4-(N,N-dimethylaminosulfonyl)piperazine-2-(R)-carboxamide], the inhibition at 2 µM in test [1] came to 86%. Moreover, on Collagenase-III, the negative logarithm of the IC50 (pIC50) is 10.00.
`O=C(NO)C1(NS(=O)(=O)N2CCN(c3ccc(Cl)cn3)CC2)CCCCC1` [compound 342] gave a negative logarithm of the IC50 (pIC50) at Collagenase-III of 8.68.
`O=C(NO)C1(NS(=O)(=O)N2CCN(c3ccc(Cl)cc3)CC2)CCCCC1` [compound 345, N-hydroxy-1-{[4-(4-chlorophenyl)piperazine-1-sulfonyl]amino}-cyclohexane-1-carboxamide]: at Collagenase-III, the pIC50 is 8.18.
Regarding `CN(Cc1ccccc1)S(=O)(=O)N(CC(=O)NO)Cc1ccccc1` [compound 355], the inhibition at 10 µM in test [1] was less than 15%. Moreover, on Collagenase-III, the pIC50 was 7.25.
For `C[C@@H](NS(=O)(=O)N1CC=C(c2ccc(Cl)cc2)CC1)C(=O)NO` [compound 401], in that order: 97% and 9.72.
As for `O=C(NO)C(NS(=O)(=O)N1CC=C(c2ccc(Cl)cc2)CC1)c1ccc(F)cc1` (centres unmarked) [compound 409], the inhibition at 10 µM in test [1] is 86%.
The compound `C[C@@H](NS(=O)(=O)N1CCN(c2ccc(Cl)cc2)CC1)C(=O)O` [compound 414, 2-(R)-{[4-(4-chlorophenyl)piperazino-1-sulfonyl]amino}propionic acid] had a negative logarithm of the IC50 (pIC50) at Collagenase-III of 5.47.
Same read-out and setting: the figure for `CN(Cc1ccccc1)S(=O)(=O)N(CC(=O)O)Cc1ccccc1` [compound 430, 2-[benzyl-(benzylmethylaminosulfonyl)amino]acetic acid] is 6.05; for `C[C@H](C(=O)O)N(Cc1ccccc1)S(=O)(=O)NCc1ccccc1` [compound 431] it is 5.19.
